# pIC50: −log10 of the molar value. Where a name gives a salt, the structure may show the parent alone. Read-outs that look alike come from different tables or passages of the source.
# Key:
# Format in all cases: cell-based
# [1] = tested on: A2780Cis (cisplatin-resistant human ovarian cancer); experiment: In vitro cytotoxicity, SRB assay, A2780Cis; details: for IC50: Homo sapiens, A2780cis, read-out: IC50 (nM) A2780Cis
# [2] = tested on: BALB/3T3 (normal mouse fibroblasts); experiment: In vitro cytotoxicity, SRB assay, normal BALB/3T3 fibroblasts
# [3] = tested on: MV-4-11 (human biphenotypic leukaemia); experiment: In vitro cytotoxicity, MTT assay, MV-4-11; details: for IC50: Homo sapiens, MV4-11, read-out: IC50 (nM) MV4-11
# [4] = tested on: A2780 (human ovarian cancer); experiment: In vitro cytotoxicity, SRB assay, A2780; details: Homo sapiens, A2780; 72 h with compound, SRB; n/a = non-active compound; read-out: A2780 IC50
# [5] = tested on: KG-1 (human acute myeloid leukaemia); experiment: In vitro cytotoxicity, MTT assay, KG-1; details: Homo sapiens; 72 h with compound, MTT; n/a = non-active compound
# [6] = Table 5, BALB/3T3 normal mouse fibroblasts, read-out: IC50 (nM) BALB3T3 normal cells
SMILES,SI A2780Cis [1],IC50 [1],"IC50 [2, 6]",SI MV4-11 [3],IC50 [3],pIC50 [4],pIC50 [5],"IC50 ([2]; Mus musculus, BALB/3T3, read-out: IC50 (nM) BALB3T3 normal cells)"
CC[C@@H](C(=O)[C@@H](C)[C@@H](O)[C@H](C)[C@@H]1O[C@@H]([C@@H](CC)C(=O)O)CC[C@@H]1C)[C@H]1O[C@]2(C=C[C@@H](NC(=O)OCCOC(C)(C)C)[C@]3(CC[C@@](C)([C@H]4CC[C@](O)(CC)[C@H](C)O4)O3)O2)[C@H](C)C[C@@H]1C [FLC-00480-1•Na],43.6,4.25 nM,185 nM,9.7,19.1 nM,–,–,–
"CCOC(=O)C(=O)N[C@@H]1C=C[C@]2(O[C@H]([C@@H](CC)C(=O)[C@@H](C)[C@@H](O)[C@H](C)[C@@H]3O[C@@H]([C@@H](CC)C(=O)O)CC[C@@H]3C)[C@@H](C)C[C@H]2C)O[C@@]12CC[C@@](C)([C@H]1CC[C@](O)(CC)[C@H](C)O1)O2 [FLC-00373-1, C20-aminosalinomycin oxalate derivative]",–,–,–,–,–,5.17,5.04,–
CC[C@@H](C(=O)[C@@H](C)[C@@H](O)[C@H](C)[C@@H]1O[C@@H]([C@@H](CC)C(=O)O)CC[C@@H]1C)[C@H]1O[C@]2(C=C[C@@H](NC(=O)N(C)C)[C@]3(CC[C@@](C)([C@H]4CC[C@](O)(CC)[C@H](C)O4)O3)O2)[C@H](C)C[C@@H]1C [FLC-00538-1•Na],22.4,42.2 nM,943 nM,9.2,103 nM,–,–,–
CC[C@@H](C(=O)[C@@H](C)[C@@H](O)[C@H](C)[C@@H]1O[C@@H]([C@@H](CC)C(=O)O)CC[C@@H]1C)[C@H]1O[C@]2(C=C[C@@H](NC(=O)NCCCN3CCS(=O)(=O)CC3)[C@]3(CC[C@@](C)([C@H]4CC[C@](O)(CC)[C@H](C)O4)O3)O2)[C@H](C)C[C@@H]1C [FLC-00546-1•Na],19.5,112 nM,2180 nM,8.5,258 nM,–,–,–
CC[C@@H](C(=O)[C@@H](C)[C@@H](O)[C@H](C)[C@@H]1O[C@@H]([C@@H](CC)C(=O)O)CC[C@@H]1C)[C@H]1O[C@]2(C=C[C@@H](NC(=O)OCCCCl)[C@]3(CC[C@@](C)([C@H]4CC[C@](O)(CC)[C@H](C)O4)O3)O2)[C@H](C)C[C@@H]1C [FLC-00530-1•Na],24.0,2.6 nM,62.5 nM,9.7,6.42 nM,–,–,–
CC[C@@H](C(=O)[C@@H](C)[C@@H](O)[C@H](C)[C@@H]1O[C@@H]([C@@H](CC)C(=O)O)CC[C@@H]1C)[C@H]1O[C@]2(C=C[C@@H](NC(=O)OCCC#N)[C@]3(CC[C@@](C)([C@H]4CC[C@](O)(CC)[C@H](C)O4)O3)O2)[C@H](C)C[C@@H]1C [FLC-00509-1•Na],14.7,16.7 nM,246 nM,10.9,22.6 nM,–,–,–
CC[C@@H](C(=O)[C@@H](C)[C@@H](O)[C@H](C)[C@@H]1O[C@@H]([C@@H](CC)C(=O)O)CC[C@@H]1C)[C@H]1O[C@]2(C=C[C@@H](NC(=O)c3cccc(C(F)(F)F)c3)[C@]3(CC[C@@](C)([C@H]4CC[C@](O)(CC)[C@H](C)O4)O3)O2)[C@H](C)C[C@@H]1C [FLC-00579-1•Na],22.3,71.4 nM,1590 nM,8.5,188 nM,–,–,–
CC[C@@H](C(=O)[C@@H](C)[C@@H](O)[C@H](C)[C@@H]1O[C@@H]([C@@H](CC)C(=O)O)CC[C@@H]1C)[C@H]1O[C@]2(C=C[C@@H](NC(=O)c3ccncc3)[C@]3(CC[C@@](C)([C@H]4CC[C@](O)(CC)[C@H](C)O4)O3)O2)[C@H](C)C[C@@H]1C [FLC-00487-1•Na],79.6,45.9 nM,3650 nM,27.5,133 nM,–,–,–
CC[C@@H](C(=O)[C@@H](C)[C@@H](O)[C@H](C)[C@@H]1O[C@@H]([C@@H](CC)C(=O)O)CC[C@@H]1C)[C@H]1O[C@]2(C=C[C@@H](NC(=O)N3CCN(S(C)(=O)=O)C3=O)[C@]3(CC[C@@](C)([C@H]4CC[C@](O)(CC)[C@H](C)O4)O3)O2)[C@H](C)C[C@@H]1C [FLC-00519-1•Na],5.3,1190 nM,6370 nM,4.0,1590 nM,–,–,–
CC[C@@H](C(=O)[C@@H](C)[C@@H](O)[C@H](C)[C@@H]1O[C@@H]([C@@H](CC)C(=O)O)CC[C@@H]1C)[C@H]1O[C@]2(C=C[C@@H](NC(=O)CC(C)(C)C)[C@]3(CC[C@@](C)([C@H]4CC[C@](O)(CC)[C@H](C)O4)O3)O2)[C@H](C)C[C@@H]1C [FLC-00534-1•Na],50.7,1.28 nM,64.9 nM,42.4,1.53 nM,–,–,–
CC[C@@H](C(=O)[C@@H](C)[C@@H](O)[C@H](C)[C@@H]1O[C@@H]([C@@H](CC)C(=O)O)CC[C@@H]1C)[C@H]1O[C@]2(C=C[C@@H](NC(=O)OC(C(F)(F)F)C(F)(F)F)[C@]3(CC[C@@](C)([C@H]4CC[C@](O)(CC)[C@H](C)O4)O3)O2)[C@H](C)C[C@@H]1C [FLC-00531-1•Na],13.2,11 nM,–,6.2,23.3 nM,–,–,145 nM
CC[C@@H](C(=O)[C@@H](C)[C@@H](O)[C@H](C)[C@@H]1O[C@@H]([C@@H](CC)C(=O)O)CC[C@@H]1C)[C@H]1O[C@]2(C=C[C@@H](NC(=O)OC(C)(C)C#N)[C@]3(CC[C@@](C)([C@H]4CC[C@](O)(CC)[C@H](C)O4)O3)O2)[C@H](C)C[C@@H]1C [FLC-00551-1•Na],12.5,63.6 nM,792 nM,9.8,81 nM,–,–,–
CC[C@@H](C(=O)[C@@H](C)[C@@H](O)[C@H](C)[C@@H]1O[C@@H]([C@@H](CC)C(=O)O)CC[C@@H]1C)[C@H]1O[C@]2(C=C[C@@H](NC(=O)NCCCOC)[C@]3(CC[C@@](C)([C@H]4CC[C@](O)(CC)[C@H](C)O4)O3)O2)[C@H](C)C[C@@H]1C [FLC-00539-1•Na],46.1,7.06 nM,326 nM,11.9,27.3 nM,–,–,–
CC[C@@H](C(=O)[C@@H](C)[C@@H](O)[C@H](C)[C@@H]1O[C@@H]([C@@H](CC)C(=O)O)CC[C@@H]1C)[C@H]1O[C@]2(C=C[C@@H](NC(=O)c3ccccc3C(F)(F)F)[C@]3(CC[C@@](C)([C@H]4CC[C@](O)(CC)[C@H](C)O4)O3)O2)[C@H](C)C[C@@H]1C [FLC-00578-1•Na],184.9,1.94 nM,358 nM,59.8,5.99 nM,–,–,–
"CC[C@@H](C(=O)[C@@H](C)[C@@H](O)[C@H](C)[C@@H]1O[C@@H]([C@@H](CC)C(=O)O)CC[C@@H]1C)[C@H]1O[C@]2(C=C[C@@H](NC(=O)CBr)[C@]3(CC[C@@](C)([C@H]4CC[C@](O)(CC)[C@H](C)O4)O3)O2)[C@H](C)C[C@@H]1C [FLC-00501-1•Na, C20-aminosalinomycin 2-bromoacetamide]",1.3,2230 nM,2830 nM,1.6,1740 nM,–,–,–
CC[C@@H](C(=O)[C@@H](C)[C@@H](O)[C@H](C)[C@@H]1O[C@@H]([C@@H](CC)C(=O)O)CC[C@@H]1C)[C@H]1O[C@]2(C=C[C@@H](NC(=O)C(=O)NCc3ccccc3Cl)[C@]3(CC[C@@](C)([C@H]4CC[C@](O)(CC)[C@H](C)O4)O3)O2)[C@H](C)C[C@@H]1C [FLC-00477-1•Na],40.4,3.54 nM,143 nM,46.1,3.11 nM,–,–,–
CC[C@@H](C(=O)[C@@H](C)[C@@H](O)[C@H](C)[C@@H]1O[C@@H]([C@@H](CC)C(=O)O)CC[C@@H]1C)[C@H]1O[C@]2(C=C[C@@H](NC(=O)NCc3cccnc3)[C@]3(CC[C@@](C)([C@H]4CC[C@](O)(CC)[C@H](C)O4)O3)O2)[C@H](C)C[C@@H]1C [FLC-00566-1•Na],47.6,122 nM,5820 nM,22.8,255 nM,–,–,–
CC[C@@H](C(=O)[C@@H](C)[C@@H](O)[C@H](C)[C@@H]1O[C@@H]([C@@H](CC)C(=O)O)CC[C@@H]1C)[C@H]1O[C@]2(C=C[C@@H](NC(=O)NCC3CCC(F)(F)CC3)[C@]3(CC[C@@](C)([C@H]4CC[C@](O)(CC)[C@H](C)O4)O3)O2)[C@H](C)C[C@@H]1C [FLC-00545-1•Na],186.6,0.57 nM,106 nM,62.8,1.68 nM,–,–,–
C#CC(C)(C)OC(=O)N[C@@H]1C=C[C@]2(O[C@H]([C@@H](CC)C(=O)[C@@H](C)[C@@H](O)[C@H](C)[C@@H]3O[C@@H]([C@@H](CC)C(=O)O)CC[C@@H]3C)[C@@H](C)C[C@H]2C)O[C@@]12CC[C@@](C)([C@H]1CC[C@](O)(CC)[C@H](C)O1)O2 [FLC-00552-1•Na],46.7,4.02 nM,187 nM,32.1,5.84 nM,–,–,–
CC[C@@H](C(=O)[C@@H](C)[C@@H](O)[C@H](C)[C@@H]1O[C@@H]([C@@H](CC)C(=O)O)CC[C@@H]1C)[C@H]1O[C@]2(C=C[C@@H](NC(=O)OCCN(C)C)[C@]3(CC[C@@](C)([C@H]4CC[C@](O)(CC)[C@H](C)O4)O3)O2)[C@H](C)C[C@@H]1C [FLC-00497-1•Na],8.2,278 nM,2280 nM,8.2,278 nM,–,–,–

# — patent US20240294541A1, “COMPOUNDS CONSTITUTING C20-MODIFIED SALINOMYCIN DERIVATIVES, A METHOD FOR OBTAINING THE SAME, A COMPOSITION CONTAINING THE SAME AND A USE OF SAID COMPOUNDS” (FILECLO SPOLKA Z OGRANICZONA ODPOWIEDZIALNOSCIA, priority 2021, published 2024)
